Results from the NIST ThermoML archive (doi:10.1016/j.jct.2017.12.023).
± gives the expanded uncertainty stated by the source.

What was measured:
[1] = refractive index (Na D-line) (dimensionless); conditions: 100 kPa, Liquid, Standard Abbe refractometry
[2] = Liquid; for viscosity / mass density: 100 kPa; for viscosity: Concentric cylinders viscometry; for mass density: Vibrating tube method; for thermal conductivity: 101.33 kPa, transient hot wire
[3] = refractive index (Na D-line) (dimensionless); xn = mol fraction of the nth substance listed; conditions: 100 kPa, Liquid, Standard Abbe refractometry, x2 = 0
[4] = xn = mol fraction of the nth substance listed; conditions: 100 kPa, Liquid, x2 = 0; for viscosity: Concentric cylinders viscometry; for mass density: Vibrating tube method

CCOS(=O)(=O)[O-].CCn1cc[n+](C)c1 [1-ethyl-3-methylimidazolium ethyl sulfate]
Conditions	mass density, [2] [kg/m3]	refractive index, [1]	thermal conductivity, [2] [W/m/K]	viscosity, [2] [mPa·s]
288.15 K	1243.07 ± 1.6	1.48155 ± 0.00069	–	155.55 ± 2.7
293.15 K	1239.66 ± 1.6	1.48018 ± 0.00069	–	117.88 ± 1.8
298.15 K	1236.27 ± 1.6	1.47882 ± 0.00069	–	91.26 ± 1.2
303.15 K	1232.87 ± 1.6	1.47746 ± 0.00069	0.1808 ± 0.0073	72.1 ± 0.81
308.15 K	1229.49 ± 1.6	1.47611 ± 0.00069	0.18 ± 0.0072	57.98 ± 0.61
313.15 K	1226.13 ± 1.6	1.47474 ± 0.00069	0.1795 ± 0.0072	47.26 ± 0.51
318.15 K	1222.79 ± 1.6	1.47341 ± 0.00069	0.1787 ± 0.0072	39.25 ± 0.42
323.15 K	1219.46 ± 1.6	1.47206 ± 0.00069	0.178 ± 0.0072	32.94 ± 0.35
328.15 K	1216.16 ± 1.6	1.47075 ± 0.00069	–	27.96 ± 0.3
333.15 K	1212.86 ± 1.5	1.46943 ± 0.00069	–	24.09 ± 0.26

CN1CCCC1=O [N-methylpyrrolidone] + CCOS(=O)(=O)[O-].CCn1cc[n+](C)c1
Conditions	mass density, [4] [kg/m3]	refractive index, [3]	viscosity, [4] [mPa·s]
288.15 K	1037.3 ± 1.5	1.47166 ± 0.00069	1.99 ± 0.023
293.15 K	1032.84 ± 1.5	1.46952 ± 0.00069	1.823 ± 0.021
298.15 K	1028.38 ± 1.5	1.46736 ± 0.00069	1.679 ± 0.019
303.15 K	1023.93 ± 1.5	1.4652 ± 0.00069	1.555 ± 0.018
308.15 K	1019.46 ± 1.5	1.46306 ± 0.00069	1.444 ± 0.017
313.15 K	1015 ± 1.5	1.46095 ± 0.00069	1.346 ± 0.016
318.15 K	1010.53 ± 1.5	1.45891 ± 0.00069	1.259 ± 0.015
323.15 K	1006.06 ± 1.5	1.4568 ± 0.00069	1.182 ± 0.014
328.15 K	1001.58 ± 1.5	1.45473 ± 0.00069	1.11 ± 0.013
333.15 K	997.1 ± 1.5	1.45267 ± 0.00069	1.043 ± 0.013

CCCCCCO [hexan-1-ol]
Conditions	mass density, [2] [kg/m3]	refractive index, [1]	viscosity, [2] [mPa·s]
288.15 K	822.26 ± 1.5	1.41986 ± 0.00069	6.297 ± 0.068
293.15 K	818.69 ± 1.5	1.4179 ± 0.00069	5.324 ± 0.058
298.15 K	815.11 ± 1.5	1.41591 ± 0.00069	4.53 ± 0.049
303.15 K	811.51 ± 1.5	1.41386 ± 0.00069	3.889 ± 0.043
308.15 K	807.88 ± 1.5	1.41182 ± 0.00069	3.355 ± 0.037
313.15 K	804.23 ± 1.5	1.40981 ± 0.00069	2.912 ± 0.032
318.15 K	800.56 ± 1.5	1.40779 ± 0.00069	2.541 ± 0.028
323.15 K	796.85 ± 1.5	1.40574 ± 0.00069	2.251 ± 0.025

CCCCCCO [hexan-1-ol] + CCOS(=O)(=O)[O-].CCn1cc[n+](C)c1
Conditions	mass density, [4] [kg/m3]	refractive index, [3]	viscosity, [4] [mPa·s]
288.15 K	822.26 ± 1.5	1.41986 ± 0.00069	6.297 ± 0.068
293.15 K	818.69 ± 1.5	1.4179 ± 0.00069	5.324 ± 0.058
298.15 K	815.11 ± 1.5	1.41591 ± 0.00069	4.53 ± 0.049
303.15 K	811.51 ± 1.5	1.41386 ± 0.00069	3.889 ± 0.043
308.15 K	807.88 ± 1.5	1.41182 ± 0.00069	3.355 ± 0.037
313.15 K	804.23 ± 1.5	1.40981 ± 0.00069	2.912 ± 0.032
318.15 K	800.56 ± 1.5	1.40779 ± 0.00069	2.541 ± 0.028
323.15 K	796.85 ± 1.5	1.40574 ± 0.00069	2.251 ± 0.025
